Laboratory results as given in patent publication US9376470B2, “Polypeptide having angiogenesis-inducing activity and antibacterial activity, and use thereof for medical purposes” (FunPep Inc., priority 2008, dated 2016).

Columns and labels:
Assay in all cases: Antibacterial activity, ATP assay (BacTiter-Glo)
Type in all cases: cell-based
[1] = tested on: Pseudomonas aeruginosa ATCC27853
Procedure: (§1) The antibacterial activity of the polypeptides was measured using an ATP assay method. That is, using BacTiter-Glo Microbial Cell Viability Assay kit available from PROMEGA, the antibacterial activity of the peptides was evaluated from the viability of bacteria. […] With respect to the strains, Staphylococcus aureus ATCC29213 (S. aureus ATCC29213) as Gram-positive bacteria, or, alternatively, Pseudomonas aeruginosa (P. aeruginosa ATCC27853) as Gram-negative bacteria, was used. The bacteria were cultured in media for 3 to 4 hours, and thereafter absorbances at A600 were measured. Bacterial suspensions were diluted with Mueller-Hinton broth (MHB) according to McFarland #0.5. Each strain was added so as to attain about 0.5−1×10^5 CFU/mL (final concentration) in terms of Escherichia coli. […] A solution to which the peptides were not added was considered as a negative control, and a solution to which tobramycin (TOB) was added was considered as a positive control. […] Relative values were calculated by comparison with the negative control, and these values were regarded as the viability. ATP (%) of the antibacterial activity was measured in the same manner as mentioned above, and the “minimum inhibitory concentration (MIC)” was measured as follows. MIC is the lowest concentration of an agent that may inhibit the growth of a bacterium. MIC is used as a parameter for the efficacy of an antibacterial agent, for the strength of bacterial sensitivity, or the like. The bacteria can grow (proliferate) when the concentration is not higher than MIC, and cannot grow when the concentration is higher than MIC. Its measurement is carried out according to a method defined as a standard method by Japanese Society of Chemotherapy or CLINICAL AND LABORATORY […] (CLSI), but, in this Example, its measurement was carried out by a broth microdilution method in accordance with “M100-S17/M7-A7” (Performance Standards for Antimicrobial Susceptibility Testing; Seventeenth Informational Supplement, Vol. 27 No. 1) published by CLSI on January, 2007. That is, sensitivity test of agents was carried out using a microtiter plate or test tubes. With respect to each strain, Escherichia coli: ATCC 25922 (Escherichia coli ATCC 25922), Pseudomonas aeruginosa: ATCC 27853 (Pseudomonas aeruginosa ATCC 27853), Staphylococcus aureus: ATCC29213 (Staphylococcus aureus ATCC29213), Klebsiella pneumoniae: JCM 1662 (Klebsiella pneumoniae JCM 1662), enterobacteria (1): JCM 1232 (Enterobacter cloacae JCM 1232), enterobacteria (2): JCM 1235 (Enterobacter aerogenes JCM 1235), and Staphylococcus epidermidis: JCM 2414 (Staphylococcus epidermidis JCM 2414), were used. […] As the concentrations of the agents in ATP assay, the concentrations as described in the Tables were used.

[2] = tested on: Staphylococcus aureus ATCC29213
Procedure: as §1

[3] = tested on: Enterobacteria (1): Enterobacter cloacae JCM 1232; conditions: ATP assay concentration: peptides 10, TOB 4.0, CPFX 1.0, OX 4.0, MEPM 8.0 μg/ml
Procedure: That is, using BacTiter-Glo Microbial Cell Viability Assay kit available from PROMEGA, the antibacterial activity of the peptides was evaluated from the viability of bacteria. […] With respect to the strains, Staphylococcus aureus ATCC29213 (S. aureus ATCC29213) as Gram-positive bacteria, or, alternatively, Pseudomonas aeruginosa (P. aeruginosa ATCC27853) as Gram-negative bacteria, was used. The bacteria were cultured in media for 3 to 4 hours, and thereafter absorbances at A600 were measured. Bacterial suspensions were diluted with Mueller-Hinton broth (MHB) according to McFarland #0.5. Each strain was added so as to attain about 0.5−1×10^5 CFU/mL (final concentration) in terms of Escherichia coli. […] A solution to which the peptides were not added was considered as a negative control, and a solution to which tobramycin (TOB) was added was considered as a positive control. […] Relative values were calculated by comparison with the negative control, and these values were regarded as the viability. […] ATP (%) of the antibacterial activity was measured in the same manner as mentioned above, and the “minimum inhibitory concentration (MIC)” was measured as follows. MIC is the lowest concentration of an agent that may inhibit the growth of a bacterium. MIC is used as a parameter for the efficacy of an antibacterial agent, for the strength of bacterial sensitivity, or the like. The bacteria can grow (proliferate) when the concentration is not higher than MIC, and cannot grow when the concentration is higher than MIC. […] (CLSI), but, in this Example, its measurement was carried out by a broth microdilution method in accordance with “M100-S17/M7-A7” (Performance Standards for Antimicrobial Susceptibility Testing; Seventeenth Informational Supplement, Vol. 27 No. 1) published by CLSI on January, 2007. That is, sensitivity test of agents was carried out using a microtiter plate or test tubes. With respect to each strain, Escherichia coli: ATCC 25922 (Escherichia coli ATCC 25922), Pseudomonas aeruginosa: ATCC 27853 (Pseudomonas aeruginosa ATCC 27853), Staphylococcus aureus: ATCC29213 (Staphylococcus aureus ATCC29213), Klebsiella pneumoniae: JCM 1662 (Klebsiella pneumoniae JCM 1662), enterobacteria (1): JCM 1232 (Enterobacter cloacae JCM 1232), enterobacteria (2): JCM 1235 (Enterobacter aerogenes JCM 1235), and Staphylococcus epidermidis: JCM 2414 (Staphylococcus epidermidis JCM 2414), were used. […] As the concentrations of the agents in ATP assay, the concentrations as described in the Tables were used.

[4] = Table 3, peptides 10 μg/mL, 3 hours, ATP relative to negative control

**Q.** Which results are given for NC[C@H]1O[C@H](O[C@H]2[C@H](O)[C@@H](O[C@H]3O[C@H](CO)[C@@H](O)[C@H](N)[C@H]3O)[C@H](N)C[C@@H]2N)[C@H](N)C[C@@H]1O [TOB, tobramycin, reference compound]?
**A.** Viability (%) Pseudomonas aeruginosa [1, 4]: 1.8%; ATP (%) mean, Pseudomonas aeruginosa ([1]; Table 4-1, ATP assay concentration: peptides 10, TOB 1.0, CPFX 1.0, OX 0.5, MEPM 1.0 μg/ml): 1.7%; Viability (%) Staphylococcus aureus [2, 4]: 3.5%; ATP (%) mean, Staphylococcus aureus ([2]; Table 4-1, ATP assay concentration: peptides 10, TOB 1.0, OX 0.5 μg/ml): 3.1%; ATP (%) mean, Enterobacteria (1) [3]: 3.0%
